Measurements published in patent US20090013417A1, “Transgenic Animals for Assessing Drug Metabolism and Toxicity in Man” (IMPERIAL CANCER RESEARCH TECHNOLOGY LIMITED, priority 2004, published 2009).

Tests used:
[1] = blood midazolam concentrations after oral midazolam in wild-type, HRN and Ad-3A4/red virus-infected HRN mice; conditions: oral 2.5 mg/kg midazolam
[2] = test system: Chinese Hamster Ovary (CHO) cell line transfected with human cytochrome P450 2D6 (CYP2D6); test: metabolism of midazolam or bufuralol in CHO cells transfected with human CYP2D6, with or without Ad-3A4/red infection; conditions: CHO/2D6 cells uninfected or infected with control Ad-GFP; 10 μM, four hours

In the case of `Cc1ncc2n1-c1ccc(Cl)cc1C(c1ccccc1F)=NC2` [midazolam], the peak midazolam concentration ([1]; HRN mice infected with Ad-3A4/red virus (72 h before)) is reported as 109 ng/mL, the “circulating midazolam concentration, peak value” ([1]; non-infected HRN mice) is reported as 260 ng/mL and the “time circulating midazolam remained detectable” value ([1]; non-infected HRN mice) is reported as > 6 h. For the same compound, the “circulating midazolam concentration, peak value” ([1]; wild-type mice) was 128 ng/mL, the “time until circulating midazolam became undetectable again” value ([1]; wild-type mice) was ≤ 3 h and the “midazolam metabolism (1'-hydroxymidazolam formation)” value [2] was “extremely slow”.
